pIC50: −log10 of the molar value. Non-standard residues stand in square brackets, D forms with d. Residues, ends and D or L forms follow the SMILES beside them. *: point of attachment. Pyrrolidine3carbonyl(3S) = O=C([C@H]1CCNC1)*; dBta = N[C@H](Cc1csc2ccccc12)C(=O)O; Tle = CC(C)(C)[C@H](N)C(=O)O; X2 = O=C(C12CNC[C@@H]1C2)*; dAbu = CC[C@@H](N)C(=O)O; Api = NC1(C(=O)O)CCNCC1; dAze = O=C(O)[C@H]1CCN1; X3 = NCC1(C(=O)*)CCC1
Assays:
CYP1A2 = CYP1A2 (Homo sapiens (Human), UniProt P05177); assay: in vitro; type: in vitro ADME; details: microsomes; for pIC50: 10 min
Procedure: (§1) Human liver microsomes containing cytochrome P450 (0.253 mg/mL protein) were incubated with test compounds (0.05-50 μM), CYPs substrates (10 μM […], 5 μM diclofenac, 30 μM mephenytoin, 5 μM dextromethorphan hydrobromide and 2 μM midazolam) and 1.0 mM NADP at 37° C. for 10 min. Naphthoflavone, sulfaphenazole, N-3-benzylnirvanol, quinidine and ketoconazole were used as reference inhibitors.

CYP 2C9 = CYP 2C9 (Homo sapiens (Human), UniProt P11712); type: in vitro ADME; details: microsomes, 10 min
Procedure: as §1

CYP 2C19 = CYP 2C19 (Homo sapiens (Human), UniProt P33261); type: in vitro ADME; details: microsomes, 10 min
Procedure: as §1

CYP 2D6 = CYP 2D6 (Homo sapiens (Human), UniProt P10635); type: in vitro ADME; details: microsomes, 10 min
Procedure: as §1

CYP 3A4 = CYP 3A4 (Homo sapiens (Human), UniProt P08684); type: in vitro ADME; details: microsomes, 10 min
Procedure: as §1

GHSR-1a = GHSR-1a (Homo sapiens (Human), UniProt Q92847); assay: Agonistic activity for GHSR-1a, FLIPR calcium assay; type: cell-based; details: agonist activity assay, Flp In-CHO-GHSR Stable Pool cells, FLIPR calcium 6 kit; read-out: The activity (IC50) of polypeptide compounds for GHSR-1a
GHSR-1a, sequence (Q92847 whole entry): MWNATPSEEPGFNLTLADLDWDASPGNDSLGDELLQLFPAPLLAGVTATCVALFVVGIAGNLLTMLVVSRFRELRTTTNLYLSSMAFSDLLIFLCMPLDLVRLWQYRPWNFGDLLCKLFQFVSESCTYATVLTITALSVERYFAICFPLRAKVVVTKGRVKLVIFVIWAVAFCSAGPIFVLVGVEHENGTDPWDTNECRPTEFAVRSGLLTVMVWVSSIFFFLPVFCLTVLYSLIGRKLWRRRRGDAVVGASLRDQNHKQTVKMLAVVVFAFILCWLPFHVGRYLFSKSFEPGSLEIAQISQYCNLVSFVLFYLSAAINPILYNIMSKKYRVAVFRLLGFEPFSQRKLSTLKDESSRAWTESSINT

CYP 2C9, sequence (P11712 whole entry): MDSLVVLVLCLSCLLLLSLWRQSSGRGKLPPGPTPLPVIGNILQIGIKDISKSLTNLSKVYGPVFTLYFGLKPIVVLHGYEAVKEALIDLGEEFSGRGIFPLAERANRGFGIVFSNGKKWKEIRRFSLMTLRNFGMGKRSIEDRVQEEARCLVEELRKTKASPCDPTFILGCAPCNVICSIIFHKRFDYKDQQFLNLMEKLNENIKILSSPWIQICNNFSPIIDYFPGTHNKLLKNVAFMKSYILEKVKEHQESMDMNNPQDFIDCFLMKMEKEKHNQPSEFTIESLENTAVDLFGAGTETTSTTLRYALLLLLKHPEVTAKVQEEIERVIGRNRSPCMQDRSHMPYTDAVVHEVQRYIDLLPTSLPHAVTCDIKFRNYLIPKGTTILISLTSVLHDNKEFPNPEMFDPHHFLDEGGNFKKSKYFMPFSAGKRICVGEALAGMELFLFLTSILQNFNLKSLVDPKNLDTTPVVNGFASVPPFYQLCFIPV
CYP 3A4, sequence (P08684 whole entry): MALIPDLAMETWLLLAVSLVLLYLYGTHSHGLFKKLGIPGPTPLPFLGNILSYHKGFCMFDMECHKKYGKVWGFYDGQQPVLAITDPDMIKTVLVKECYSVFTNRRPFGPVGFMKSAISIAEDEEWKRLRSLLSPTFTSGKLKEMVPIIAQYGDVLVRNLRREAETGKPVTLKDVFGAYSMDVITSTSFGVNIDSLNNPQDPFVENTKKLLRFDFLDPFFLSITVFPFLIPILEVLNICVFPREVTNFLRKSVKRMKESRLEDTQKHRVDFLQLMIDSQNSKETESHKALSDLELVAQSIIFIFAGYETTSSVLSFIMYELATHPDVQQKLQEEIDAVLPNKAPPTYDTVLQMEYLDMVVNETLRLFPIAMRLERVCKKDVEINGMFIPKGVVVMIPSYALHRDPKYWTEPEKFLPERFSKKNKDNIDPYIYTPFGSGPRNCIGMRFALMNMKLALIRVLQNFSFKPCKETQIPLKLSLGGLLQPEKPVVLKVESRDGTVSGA
CYP 2D6, sequence (P10635 whole entry): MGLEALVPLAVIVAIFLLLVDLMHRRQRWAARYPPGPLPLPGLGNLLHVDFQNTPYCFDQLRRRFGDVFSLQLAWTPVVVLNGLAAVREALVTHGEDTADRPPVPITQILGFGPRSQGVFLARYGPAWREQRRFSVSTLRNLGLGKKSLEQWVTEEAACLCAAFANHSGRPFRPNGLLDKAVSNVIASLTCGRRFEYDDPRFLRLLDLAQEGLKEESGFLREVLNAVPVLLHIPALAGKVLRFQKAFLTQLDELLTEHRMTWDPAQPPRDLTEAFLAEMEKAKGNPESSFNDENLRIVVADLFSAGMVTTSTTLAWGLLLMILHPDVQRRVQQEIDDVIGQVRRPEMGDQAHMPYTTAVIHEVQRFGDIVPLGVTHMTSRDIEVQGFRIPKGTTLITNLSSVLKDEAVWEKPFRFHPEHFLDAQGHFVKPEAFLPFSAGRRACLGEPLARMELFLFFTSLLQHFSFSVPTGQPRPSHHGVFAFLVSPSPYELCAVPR
CYP1A2, sequence (P05177 whole entry): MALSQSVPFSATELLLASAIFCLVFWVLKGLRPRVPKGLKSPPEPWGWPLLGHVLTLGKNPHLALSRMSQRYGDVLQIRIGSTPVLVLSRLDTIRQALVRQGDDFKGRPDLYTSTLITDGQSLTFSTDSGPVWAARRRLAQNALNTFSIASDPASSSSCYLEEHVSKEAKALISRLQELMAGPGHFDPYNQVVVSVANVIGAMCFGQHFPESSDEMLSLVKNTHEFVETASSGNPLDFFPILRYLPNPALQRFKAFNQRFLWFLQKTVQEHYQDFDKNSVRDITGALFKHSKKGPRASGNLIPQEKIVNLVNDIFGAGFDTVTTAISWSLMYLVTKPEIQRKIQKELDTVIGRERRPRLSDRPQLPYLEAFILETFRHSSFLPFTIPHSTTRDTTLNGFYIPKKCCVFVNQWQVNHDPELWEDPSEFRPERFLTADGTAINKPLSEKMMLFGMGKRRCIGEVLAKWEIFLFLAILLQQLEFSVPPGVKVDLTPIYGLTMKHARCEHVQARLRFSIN
CYP 2C19, sequence (P33261 whole entry): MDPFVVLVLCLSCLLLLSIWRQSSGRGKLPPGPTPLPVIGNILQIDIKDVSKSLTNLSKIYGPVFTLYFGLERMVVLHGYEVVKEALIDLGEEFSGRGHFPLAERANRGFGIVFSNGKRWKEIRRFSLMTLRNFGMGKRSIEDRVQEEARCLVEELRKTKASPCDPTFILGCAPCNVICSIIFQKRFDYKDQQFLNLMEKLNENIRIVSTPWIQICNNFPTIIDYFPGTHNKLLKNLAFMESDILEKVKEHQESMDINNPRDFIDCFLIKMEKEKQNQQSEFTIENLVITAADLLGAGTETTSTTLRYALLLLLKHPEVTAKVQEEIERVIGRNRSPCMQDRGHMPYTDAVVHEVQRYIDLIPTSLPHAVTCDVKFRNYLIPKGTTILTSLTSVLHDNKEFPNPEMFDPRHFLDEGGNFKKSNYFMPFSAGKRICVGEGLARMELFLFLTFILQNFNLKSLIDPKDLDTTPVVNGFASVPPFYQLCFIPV

SMILES: NCC(=O)N[C@H](Cc1csc2ccccc12)C(=O)N[C@H](Cc1c[nH]c2ccccc12)C(=O)N[C@@H](Cc1ccccc1)C(=O)NC1(C(N)=O)CCNCC1 [Compound 11] (H-G[dBta][dW]F[Api]-NH2)
- pIC50 (CYP1A2): < 4.30
- pIC50 (CYP 2C9): < 4.30
- pIC50 (CYP 2C19): < 4.30
- pIC50 (CYP 2D6): < 4.30
- pIC50 (CYP 3A4): 4.48
- pIC50 (GHSR-1a): 7.69

SMILES: NC(=O)C1(NC(=O)[C@H](Cc2ccccc2)NC(=O)[C@@H](Cc2c[nH]c3ccccc23)NC(=O)[C@@H](Cc2csc3ccccc23)NC(=O)C23CNC[C@@H]2C3)CCNCC1 (stereo partly drawn) [Compound 30] (X2-[dBta][dW]F[Api]-NH2)
- pIC50 (CYP1A2): < 4.30
- pIC50 (CYP 2C9): < 4.30
- pIC50 (CYP 2C19): < 4.30
- pIC50 (CYP 2D6): < 4.30
- pIC50 (CYP 3A4): < 4.30
- pIC50 (GHSR-1a): 7.87

SMILES: NC(=O)[C@H](Cc1ccccc1)NC(=O)[C@@H](Cc1c[nH]c2ccccc12)NC(=O)[C@@H](Cc1csc2ccccc12)NC(=O)[C@H]1CNCCO1 [Compound 77]
- IC50 at 10 min (CYP1A2): > 50 µM
- pIC50 (CYP 2C9): < 4.30
- pIC50 (CYP 2C19): < 4.30
- pIC50 (CYP 2D6): < 4.30
- pIC50 (CYP 3A4): < 4.30
- pIC50 (GHSR-1a): 7.87

SMILES: NCCCC[C@@H](NC(=O)[C@H](Cc1ccccc1)NC(=O)[C@@H](Cc1c[nH]c2ccccc12)NC(=O)[C@@H](Cc1csc2ccccc12)NC(=O)[C@H]1CCNC1)C(N)=O [Compound 56] ({Pyrrolidine3carbonyl(3S)}-[dBta][dW]F[dK]-NH2)
- pIC50 (CYP1A2): < 4.30
- pIC50 (CYP 2C9): < 4.30
- pIC50 (CYP 2C19): < 4.30
- pIC50 (CYP 2D6): < 4.30
- pIC50 (CYP 3A4): < 4.30
- pIC50 (GHSR-1a): 8.26

SMILES: NC(=O)C1(NC(=O)[C@H](Cc2ccccc2)NC(=O)[C@@H](Cc2c[nH]c3ccccc23)NC(=O)[C@@H](Cc2csc3ccccc23)NC(=O)[C@H]2CCN2)CCNCC1 [Compound 25] (H-[dAze][dBta][dW]F[Api]-NH2)
- pIC50 (CYP1A2): < 4.30
- pIC50 (CYP 2C9): < 4.30
- pIC50 (CYP 2C19): < 4.30
- pIC50 (CYP 2D6): < 4.30
- pIC50 (CYP 3A4): < 4.30
- pIC50 (GHSR-1a): 7.74

SMILES: CC(C)C[C@@H](N)C(=O)N[C@H](Cc1csc2ccccc12)C(=O)N[C@H](Cc1c[nH]c2ccccc12)C(=O)N[C@@H](Cc1ccccc1)C(=O)NC1(C(N)=O)CCNCC1 [Compound 14] (H-[dL][dBta][dW]F[Api]-NH2)
- pIC50 (CYP1A2): < 4.30
- pIC50 (CYP 2C9): < 4.30
- pIC50 (CYP 2C19): < 4.30
- pIC50 (CYP 2D6): < 4.30
- pIC50 (CYP 3A4): < 4.30
- pIC50 (GHSR-1a): 7.48

SMILES: CC(C)(C)[C@H](N)C(=O)N[C@H](Cc1csc2ccccc12)C(=O)N[C@H](Cc1c[nH]c2ccccc12)C(=O)N[C@@H](Cc1ccccc1)C(=O)N[C@H](CCCCN)C(N)=O [Compound 48] (H-[Tle][dBta][dW]F[dK]-NH2)
- pIC50 (CYP1A2): < 4.30
- pIC50 (CYP 2C9): < 4.30
- pIC50 (CYP 2C19): < 4.30
- pIC50 (CYP 2D6): < 4.30
- pIC50 (CYP 3A4): < 4.30
- pIC50 (GHSR-1a): 7.92

SMILES: C[C@@H](N)C(=O)N[C@H](Cc1csc2ccccc12)C(=O)N[C@H](Cc1c[nH]c2ccccc12)C(=O)N[C@@H](Cc1ccccc1)C(=O)NC1(C(N)=O)CCNCC1 [Compound 12] (H-[dA][dBta][dW]F[Api]-NH2)
- pIC50 (CYP1A2): < 4.30
- pIC50 (CYP 2C9): < 4.30
- pIC50 (CYP 2C19): < 4.30
- pIC50 (CYP 2D6): < 4.30
- pIC50 (CYP 3A4): < 4.30
- pIC50 (GHSR-1a): 7.27

SMILES: NC(=O)[C@H](Cc1ccccc1)NC(=O)[C@@H](Cc1c[nH]c2ccccc12)NC(=O)[C@@H](Cc1csc2ccccc12)NC(=O)[C@@]12CNC[C@@H]1C2 [Compound 80]
- IC50 at 10 min (CYP1A2): > 50 µM
- pIC50 (CYP 2C9): < 4.30
- pIC50 (CYP 2C19): < 4.30
- pIC50 (CYP 2D6): < 4.30
- pIC50 (CYP 3A4): < 4.30
- pIC50 (GHSR-1a): 7.45

SMILES: CC(C)[C@@H](N)C(=O)N[C@H](Cc1csc2ccccc12)C(=O)N[C@H](Cc1c[nH]c2ccccc12)C(=O)N[C@@H](Cc1ccccc1)C(=O)NC1(C(N)=O)CCNCC1 [Compound 13] (H-[dV][dBta][dW]F[Api]-NH2)
- pIC50 (CYP1A2): < 4.30
- pIC50 (CYP 2C9): < 4.30
- pIC50 (CYP 2C19): < 4.30
- pIC50 (CYP 2D6): < 4.30
- pIC50 (CYP 3A4): < 4.30
- pIC50 (GHSR-1a): 7.36

SMILES: NCC1(C(=O)N[C@H](Cc2csc3ccccc23)C(=O)N[C@H](Cc2c[nH]c3ccccc23)C(=O)N[C@@H](Cc2ccccc2)C(=O)NC2(C(N)=O)CCNCC2)CCC1 [Compound 22] (X3-[dBta][dW]F[Api]-NH2)
- pIC50 (CYP1A2): < 4.30
- pIC50 (CYP 2C9): < 4.30
- pIC50 (CYP 2C19): < 4.30
- pIC50 (CYP 2D6): < 4.30
- pIC50 (CYP 3A4): < 4.30
- pIC50 (GHSR-1a): 8.64

SMILES: NCCCC[C@@H](NC(=O)[C@H](Cc1ccccc1)NC(=O)[C@@H](Cc1c[nH]c2ccccc12)NC(=O)[C@@H](Cc1csc2ccccc12)NC(=O)[C@@H]1CCCN1)C(N)=O [Compound 45] (H-P[dBta][dW]F[dK]-NH2)
- pIC50 (CYP1A2): < 4.30
- pIC50 (CYP 2C9): < 4.30
- pIC50 (CYP 2C19): < 4.30
- pIC50 (CYP 2D6): < 4.30
- pIC50 (CYP 3A4): < 4.30
- pIC50 (GHSR-1a): 8.29

SMILES: CC[C@@H](N)C(=O)N[C@H](Cc1csc2ccccc12)C(=O)N[C@H](Cc1c[nH]c2ccccc12)C(=O)N[C@@H](Cc1ccccc1)C(=O)NC1(C(N)=O)CCNCC1 [Compound 2] (H-[dAbu][dBta][dW]F[Api]-NH2)
- pIC50 (CYP1A2): < 4.30
- pIC50 (CYP 2C9): < 4.30
- pIC50 (CYP 2C19): < 4.30
- pIC50 (CYP 2D6): < 4.30
- pIC50 (CYP 3A4): 4.70
- pIC50 (GHSR-1a): 8.46

Source: patent US20240158438A1, “POLYPEPTIDE COMPOUND AND APPLICATION THEREOF” (CHENGDU SINTANOVO BIOTECHNOLOGY CO., LTD., priority 2021, published 2024)
